Data as given in paper PMC4291083, “Ex Vivo Characterization of a Novel Iodine-123-Labelled Aminomethylchroman as a Potential Agonist Ligand for SPECT Imaging of Dopamine D2/3 Receptors” (International Journal of Molecular Imaging, 2014).
Marks after values point to notes of the source that are not given here.

Assay: Biodistribution studies in rats
Format: in vivo, Wistar rats
Conditions: for uptake ratio Frontal cortex/cereb. / uptake ratio Hippocampus/cereb. / uptake ratio Hypothalamus/cereb. / uptake ratio Midbrain/cereb. / uptake ratio Olfactory b./cereb. / uptake ratio Pons/medulla/cereb. / uptake ratio Striatum/cereb. / uptake ratio Thalamus/cereb. / uptake ratio Pituitary/cereb.: rats; for 123I radioactivity, Blood / 123I radioactivity, Cerebellum / 123I radioactivity, Fat: male rats
Protocol: [^123I]-1 (SA ≥ 37 MBq/nmol) was received after radiolabelling in an isotonic acetate (9% EtOH) buffer (pH 4.8). The solution was passed through a membrane filter (0.2 μm) and was diluted to the proper concentrations. Male Wistar rats (approximately 250 g body weight, obtained from Harlan/Charles River, Zeist, Netherlands) received an intravenous injection in the tail vein of approximately 3.7 MBq/0.4 mL buffer of [^123I]-1 under O2/CO2 anaesthesia. Distribution to the tissue was measured 15 min, 30 min, and 1, 2, 3, 4, and 24 h after the injection to determine the time course of uptake in several organs, including the brain. Four rats were killed at each time point via bleeding by heart puncture (to minimize contribution of blood activity) under O2/CO2 anaesthesia followed by cervical dislocation. Brain regions (cerebellum, frontal and prefrontal cortex, olfactory bulbs, pituitary, medulla with pons, midbrain, striatum, hypothalamus, hippocampus, and thalamus) and various peripheral tissues (heart, lung, liver, spleen, kidney, muscle, fat, and thymus) were quickly excised and weighted. The activity of [^123I] was assayed in a gamma counter, and data was corrected for decay and the amount of radioactivity was presented as percentage of the injected dose, multiplied by the body weight in kilograms, per gram tissue or blood. Selective uptake in the striatum was determined by calculating the ratio of radioactivity in the striatum in relation to that in the cerebellum, since the density of dopamine D2/3 receptor is negligible in this brain area in rats.

Oc1ccc2c(c1)O[C@@H](CNCc1ccc([123I])cc1)CC2 [[^123I]-1]
uptake ratio Frontal cortex/cereb. (15 min after i.v. injection): 2.962 ± 1.817 | uptake ratio Hippocampus/cereb. (15 min after i.v. injection): 0.870 ± 0.303 | uptake ratio Hypothalamus/cereb. (15 min after i.v. injection): 1.512 ± 0.546 | uptake ratio Midbrain/cereb. (15 min after i.v. injection): 3.712 ± 4.715 | uptake ratio Olfactory b./cereb. (15 min after i.v. injection): 0.431 ± 0.330 | uptake ratio Pons/medulla/cereb. (15 min after i.v. injection): 1.470 ± 0.520 | uptake ratio Striatum/cereb. (15 min after i.v. injection): 1.455 ± 1.265 | uptake ratio Thalamus/cereb. (15 min after i.v. injection): 1.670 ± 0.908 | uptake ratio Pituitary/cereb. (15 min after i.v. injection, only 1 sample): 1.157^* | uptake ratio Frontal cortex/cereb. (30 min after i.v. injection): 1.543 ± 0.142 | uptake ratio Hippocampus/cereb. (30 min after i.v. injection): 1.479 ± 0.466 | uptake ratio Hypothalamus/cereb. (30 min after i.v. injection): 1.139 ± 0.014 | uptake ratio Midbrain/cereb. (30 min after i.v. injection): 1.144 ± 0.051 | uptake ratio Olfactory b./cereb. (30 min after i.v. injection): 0.893 ± 0.067 | uptake ratio Pituitary/cereb. (30 min after i.v. injection): 2.262 ± 0.233 | uptake ratio Pons/medulla/cereb. (30 min after i.v. injection): 1.036 ± 0.212 | uptake ratio Striatum/cereb. (30 min after i.v. injection): 1.294 ± 0.061 | uptake ratio Thalamus/cereb. (30 min after i.v. injection): 1.325 ± 0.074 | mean ratio of striatum/cerebellum binding (30 min to 4 h p.i., i.v., Wistar rats): about 1.3 | uptake ratio Frontal cortex/cereb. (1 h after i.v. injection): 1.154 ± 0.095 | uptake ratio Hippocampus/cereb. (1 h after i.v. injection): 1.390 ± 0.210 | uptake ratio Hypothalamus/cereb. (1 h after i.v. injection): 1.189 ± 0.132 | uptake ratio Midbrain/cereb. (1 h after i.v. injection): 1.207 ± 0.109 | uptake ratio Olfactory b./cereb. (1 h after i.v. injection): 1.007 ± 0.050 | uptake ratio Pituitary/cereb. (1 h after i.v. injection): 2.502 ± 0.883 | uptake ratio Pons/medulla/cereb. (1 h after i.v. injection): 1.218 ± 0.109 | uptake ratio Striatum/cereb. (1 h after i.v. injection): 1.246 ± 0.103 | uptake ratio Thalamus/cereb. (1 h after i.v. injection): 1.243 ± 0.042 | uptake ratio Frontal cortex/cereb. (2 h after i.v. injection): 1.145 ± 0.079 | uptake ratio Hippocampus/cereb. (2 h after i.v. injection): 1.301 ± 0.047 | uptake ratio Hypothalamus/cereb. (2 h after i.v. injection): 1.116 ± 0.085 | uptake ratio Midbrain/cereb. (2 h after i.v. injection): 1.168 ± 0.080 | uptake ratio Olfactory b./cereb. (2 h after i.v. injection): 1.125 ± 0.089 | uptake ratio Pituitary/cereb. (2 h after i.v. injection): 4.399 ± 2.113 | uptake ratio Pons/medulla/cereb. (2 h after i.v. injection): 1.205 ± 0.016 | uptake ratio Striatum/cereb. (2 h after i.v. injection): 1.155 ± 0.069 | uptake ratio Thalamus/cereb. (2 h after i.v. injection): 1.200 ± 0.067 | uptake ratio Frontal cortex/cereb. (3 h after i.v. injection): 1.315 ± 0.360 | uptake ratio Hippocampus/cereb. (3 h after i.v. injection): 1.294 ± 0.112 | uptake ratio Hypothalamus/cereb. (3 h after i.v. injection): 1.326 ± 0.053 | uptake ratio Midbrain/cereb. (3 h after i.v. injection): 1.224 ± 0.090 | uptake ratio Olfactory b./cereb. (3 h after i.v. injection): 1.314 ± 0.150 | uptake ratio Pituitary/cereb. (3 h after i.v. injection): 3.352 ± 1.490 | uptake ratio Pons/medulla/cereb. (3 h after i.v. injection): 1.310 ± 0.114 | uptake ratio Striatum/cereb. (3 h after i.v. injection): 1.331 ± 0.126 | uptake ratio Thalamus/cereb. (3 h after i.v. injection): 1.582 ± 0.101 | uptake ratio Frontal cortex/cereb. (4 h after i.v. injection): 0.865 ± 0.580 | uptake ratio Hippocampus/cereb. (4 h after i.v. injection): 1.035 ± 0.114 | uptake ratio Hypothalamus/cereb. (4 h after i.v. injection): 1.332 ± 0.103 | uptake ratio Midbrain/cereb. (4 h after i.v. injection): 1.097 ± 0.086 | uptake ratio Olfactory b./cereb. (4 h after i.v. injection): 1.333 ± 0.124 | uptake ratio Pituitary/cereb. (4 h after i.v. injection): 3.570 ± 2.544 | uptake ratio Pons/medulla/cereb. (4 h after i.v. injection): 1.214 ± 0.133 | uptake ratio Striatum/cereb. (4 h after i.v. injection): 1.156 ± 0.080 | uptake ratio Thalamus/cereb. (4 h after i.v. injection): 1.351 ± 0.175 | uptake ratio Frontal cortex/cereb. (24 h after i.v. injection): 1.818 ± 0.372 | uptake ratio Hippocampus/cereb. (24 h after i.v. injection): 1.031 ± 0.090 | uptake ratio Hypothalamus/cereb. (24 h after i.v. injection): 1.989 ± 0.574 | uptake ratio Midbrain/cereb. (24 h after i.v. injection): 1.426 ± 0.204 | uptake ratio Olfactory b./cereb. (24 h after i.v. injection): 1.444 ± 0.163 | uptake ratio Pituitary/cereb. (24 h after i.v. injection): 6.021 ± 0.577 | uptake ratio Pons/medulla/cereb. (24 h after i.v. injection): 1.278 ± 0.211 | uptake ratio Striatum/cereb. (24 h after i.v. injection): 2.023 ± 0.872 | uptake ratio Thalamus/cereb. (24 h after i.v. injection): 2.473 ± 0.599 | 123I radioactivity, Blood (15 min after i.v. injection): 0.291 ± 0.190 %ID × kg/g | 123I radioactivity, Blood (30 min after i.v. injection): 0.486 ± 0.291 %ID × kg/g | 123I radioactivity, Blood (1 h after i.v. injection): 0.557 ± 0.087 %ID × kg/g | 123I radioactivity, Blood (2 h after i.v. injection): 0.446 ± 0.105 %ID × kg/g | 123I radioactivity, Blood (3 h after i.v. injection): 0.428 ± 0.082 %ID × kg/g | 123I radioactivity, Blood (4 h after i.v. injection): 0.393 ± 0.136 %ID × kg/g | 123I radioactivity, Blood (24 h after i.v. injection): 0.081 ± 0.049 %ID × kg/g | 123I radioactivity, Cerebellum (15 min after i.v. injection): 0.858 ± 0.384 %ID × kg/g | 123I radioactivity, Cerebellum (30 min after i.v. injection): 1.496 ± 0.478 %ID × kg/g | 123I radioactivity, Cerebellum (1 h after i.v. injection): 0.627 ± 0.035 %ID × kg/g | 123I radioactivity, Cerebellum (2 h after i.v. injection): 0.196 ± 0.037 %ID × kg/g | 123I radioactivity, Cerebellum (3 h after i.v. injection): 0.178 ± 0.061 %ID × kg/g | 123I radioactivity, Cerebellum (4 h after i.v. injection): 0.087 ± 0.043 %ID × kg/g | 123I radioactivity, Cerebellum (24 h after i.v. injection): 0.014 ± 0.002 %ID × kg/g | 123I radioactivity, Fat (15 min after i.v. injection): 3.080 ± 2.656 %ID × kg/g | 123I radioactivity, Fat (30 min after i.v. injection): 0.674 ± 0.102 %ID × kg/g | 123I radioactivity, Fat (1 h after i.v. injection): 0.509 ± 0.024 %ID × kg/g | 123I radioactivity, Fat (2 h after i.v. injection): 0.365 ± 0.094 %ID × kg/g
